Reference: patent publication US6924302B2, “Substituted triazole diamine derivatives as kinase inhibitors” (Ortho McNeil Pharmaceutical, Inc., priority 2000, dated 2005)

Tests used:
Format in all cases: biochemical
[1] = target: T1, CDK1:Cyclin-B (Homo sapiens, UniProt P06493); assay: CDK1 Screening Assay; conditions: Table 1; read-out: CDK1 IC50
T1 construct: purchased New England Biolabs 6020; host or cells: insect cells
Method: (§1) 70 μL of the kinase reaction mixture was dispensed into the well of a streptavidin coated FlashPlate™ (Cat. # SMP103, NEN, Boston, Mass.). Then 1 μL of test compound stock in 100% DMSO was added to the wells resulting in a final concentration of 1% DMSO in the reaction with a 100 μl final reaction volume. Next, CDK1:Cyclin-B protein was diluted in 50 mM Tris-HCl pH=8.0, 0.1% BSA at a concentration of 1 ng per μL and 30 μl (30 ng enzyme per test well) was added to each well to initiate the reaction. The reaction was incubated for one hour at 30° C. At the end of the 1-hour incubation, the reaction was terminated by aspirating the reaction mixture from the plate and washing the wells twice with PBS containing 100 mM EDTA. The histone-H1 biotinylated peptide substrate became immobilized on the Flashplate™ and the incorporation of ^33P-γ-ATP was measured by reading the plate on a scintillation counter. Inhibition of the enzymatic activity of CDK1 was measured by observing a reduced amount of ^33P-γ-ATP incorporated into the immobilized peptide.
Assays to test compound inhibition of other kinases were preformed using methods that measure the amount of phosphorylation of a biotinylated peptide substrate. Biotinylated peptide substrates were selected from the literature as appropriate for the enzyme being evaluated. […] Assay conditions vary slightly for each protein kinase, for example, insulin receptor kinase requires 10 mM MnCl2 for activity and Calmodulin-dependent protein kinase requires calmodulin and 10 mM CaCl2. These assay conditions are known in the art. The reaction mixture was dispensed into the wells of a streptavidin coated Flashplate and 1 μl drug stock in 100% DMSO was added to a 100 μl reaction volume resulting in a final concentration of 1% DMSO on the reaction. Enzyme was diluted in 50 mM Tris-HCl pH=8.0, 0.1% BSA and add to each well. The reaction was incubated for one hour at 30° C. in the presence of compound. After one hour the reaction mix was aspirated from the plate and the plate was washed with PBS containing 100 mM EDTA. The plate was read on a scintillation counter to determine ^33P-γ-ATP incorporated into the immobilized peptide. Test compounds were assayed in duplicate at 8 concentrations [100 uM, 10 uM, 1 uM, 100 nM, 10 nM, 1 nM, 100 pM, 10 pM]. A maximum and minimum signal for the assay was determined on each plate. The IC50 was calculated from the dose response curve of the percent inhibition of the maximum signal in the assay according to the formula [max signal—background/test compound signal—background (100)=% inhibition] by graphing the percent inhibition against the log concentration of test compound. Known inhibitor compounds appropriate for the kinase being assayed were also included on each plate. […]

[2] = target: T2, VEGF-R (vascular endothelial growth factor receptor-2) (Rattus norvegicus, UniProt O08775); assay: VEGF-R Screening Assay; conditions: Table 1; read-out: VEGF-R IC50
T2 construct: polyhistidine (6xHIS) (N)
Method: as §1, with “a 100 μL final reaction” for “a 100 μl final reaction”, “volume. Next, soluble rat tyrosine kinase containing an N-terminal 6×HIS tag was diluted” for “volume. Next, CDK1:Cyclin-B protein was diluted”, “concentration of 5 ng per” for “concentration of 1 ng per”, “and 30 μL (150 ng enzyme” for “and 30 μl (30 ng enzyme”, “EDTA. The PLC1 biotinylated peptide” for “EDTA. The histone-H1 biotinylated peptide”, “activity of the VEGF-R was measured” for “activity of CDK1 was measured”
(§2) Assays to test compound inhibition of other kinases were preformed using methods that measure the amount of phosphorylation of a biotinylated peptide substrate. Biotinylated peptide substrates were selected from the literature as appropriate for the enzyme being evaluated. […] Assay conditions vary slightly for each protein kinase, for example, insulin receptor kinase requires 10 mM MnCl2 for activity and Calmodulin-dependent protein kinase requires calmodulin and 10 mM CaCl2. These assay conditions are known in the art. The reaction mixture was dispensed into the wells of a streptavidin coated Flashplate and 1 μl drug stock in 100% DMSO was added to a 100 μl reaction volume resulting in a final concentration of 1% DMSO on the reaction. Enzyme was diluted in 50 mM Tris-HCl pH=8.0, 0.1% BSA and add to each well. The reaction was incubated for one hour at 30° C. in the presence of compound. After one hour the reaction mix was aspirated from the plate and the plate was washed with PBS containing 100 mM EDTA. The plate was read on a scintillation counter to determine ^33P-γ-ATP incorporated into the immobilized peptide. Test compounds were assayed in duplicate at 8 concentrations [100 uM, 10 uM, 1 uM, 100 nM, 10 nM, 1 nM, 100 pM, 10 pM]. A maximum and minimum signal for the assay was determined on each plate. The IC50 was calculated from the dose response curve of the percent inhibition of the maximum signal in the assay according to the formula [max signal—background/test compound signal—background (100)=% inhibition] by graphing the percent inhibition against the log concentration of test compound. Known inhibitor compounds appropriate for the kinase being assayed were also included on each plate.
(§3) CDK2 in complex with cyclin A is commercially available (Upstate Biotech, Lake Placid, N.Y.). The CDK4 complex was composed of a mouse CDK4 protein and a mouse Cyclin D1 protein (The mouse CDK4 protein was genetically fused to an N-terminal Flag-epitope tag and the mouse Cyclin D1 protein was fused with an N-terminal AU-1 epitope tag. The genes encoding these proteins were transferred to commercially available baculoviral vectors. The recombinant CDK4/D1 complex was then made by co-infecting commercially available insect cells with viruses carrying these two constructs). […] ERK-1 protein (Discontinued from Calbiochem). EGFR (epidermal growth factor receptor) is purified from human A431 cell membranes (Sigma, St. Louis, Mo., Cat.# E3641).

[3] = target: T3, HER2 (human epidermal growth factor receptor-2) (Homo sapiens, UniProt P04626); assay: Kinase Selectivity Assay HER2; conditions: Table 1; read-out: HER2 IC50
T3 construct: begins at amino acid 676 followed by the remainder of the HER2 cytoplasmic domain; polyhistidine (N)
Method: as §2, §3

T2 sequence (O08775 786-1343): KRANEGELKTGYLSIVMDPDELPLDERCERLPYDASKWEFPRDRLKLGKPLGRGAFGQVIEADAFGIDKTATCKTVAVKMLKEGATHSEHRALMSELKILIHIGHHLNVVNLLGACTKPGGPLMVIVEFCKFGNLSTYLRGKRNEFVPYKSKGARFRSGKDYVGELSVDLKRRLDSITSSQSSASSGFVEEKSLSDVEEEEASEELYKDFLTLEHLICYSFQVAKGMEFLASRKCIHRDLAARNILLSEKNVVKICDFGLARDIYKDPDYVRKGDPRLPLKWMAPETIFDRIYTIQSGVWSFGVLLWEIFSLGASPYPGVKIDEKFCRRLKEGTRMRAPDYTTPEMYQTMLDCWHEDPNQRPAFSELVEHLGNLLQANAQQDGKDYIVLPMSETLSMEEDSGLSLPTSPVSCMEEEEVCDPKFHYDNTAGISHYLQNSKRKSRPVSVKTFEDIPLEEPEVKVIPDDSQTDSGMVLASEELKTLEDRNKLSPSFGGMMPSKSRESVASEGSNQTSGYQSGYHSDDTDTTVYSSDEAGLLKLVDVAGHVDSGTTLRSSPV
T1 sequence (P06493 whole entry): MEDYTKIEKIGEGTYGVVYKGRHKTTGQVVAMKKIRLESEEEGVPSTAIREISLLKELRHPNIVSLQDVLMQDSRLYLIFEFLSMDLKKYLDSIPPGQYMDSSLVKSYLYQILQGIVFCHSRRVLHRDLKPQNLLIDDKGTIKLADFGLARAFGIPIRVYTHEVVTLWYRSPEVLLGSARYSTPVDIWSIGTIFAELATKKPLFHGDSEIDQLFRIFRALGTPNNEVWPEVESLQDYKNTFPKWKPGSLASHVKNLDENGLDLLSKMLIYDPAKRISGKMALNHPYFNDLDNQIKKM
T1 sequence (P14635 whole entry partner): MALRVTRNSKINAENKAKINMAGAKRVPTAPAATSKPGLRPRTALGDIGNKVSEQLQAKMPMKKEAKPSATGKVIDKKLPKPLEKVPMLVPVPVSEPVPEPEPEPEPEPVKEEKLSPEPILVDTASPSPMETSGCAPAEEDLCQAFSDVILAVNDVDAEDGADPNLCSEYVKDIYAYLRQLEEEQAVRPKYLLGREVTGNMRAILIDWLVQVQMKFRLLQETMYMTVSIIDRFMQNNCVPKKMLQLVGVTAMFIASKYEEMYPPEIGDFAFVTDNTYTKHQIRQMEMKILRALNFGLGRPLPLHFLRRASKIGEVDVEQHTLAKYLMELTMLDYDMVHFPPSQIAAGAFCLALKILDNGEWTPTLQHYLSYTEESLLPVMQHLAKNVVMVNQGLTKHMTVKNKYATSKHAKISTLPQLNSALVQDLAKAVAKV
T3 sequence (P04626 676-1255 limits assumed): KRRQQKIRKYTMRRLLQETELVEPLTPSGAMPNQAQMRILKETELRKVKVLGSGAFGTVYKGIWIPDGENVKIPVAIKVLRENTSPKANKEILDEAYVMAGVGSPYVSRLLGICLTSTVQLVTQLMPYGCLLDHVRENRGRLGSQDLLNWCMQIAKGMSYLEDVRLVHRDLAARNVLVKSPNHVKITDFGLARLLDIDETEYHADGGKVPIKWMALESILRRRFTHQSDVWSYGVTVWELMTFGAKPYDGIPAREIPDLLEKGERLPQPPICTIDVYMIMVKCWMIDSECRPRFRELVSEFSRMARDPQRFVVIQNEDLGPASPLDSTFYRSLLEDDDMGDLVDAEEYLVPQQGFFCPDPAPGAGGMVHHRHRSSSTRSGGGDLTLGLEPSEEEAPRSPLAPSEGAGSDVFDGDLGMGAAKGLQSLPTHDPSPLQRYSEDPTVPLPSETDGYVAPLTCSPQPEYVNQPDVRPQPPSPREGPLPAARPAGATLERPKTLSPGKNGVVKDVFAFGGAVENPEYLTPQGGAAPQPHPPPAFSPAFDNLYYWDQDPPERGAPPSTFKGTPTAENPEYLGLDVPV

| Structure (SMILES) | IC50 [1] [µM] | IC50 [2] [µM] | IC50 [3] [µM] |
| --- | --- | --- | --- |
| Nc1nc(Nc2ccc(S(N)(=O)=O)cc2)nn1C(=O)c1ccco1 [Cpd 25, 4-[[5-amino-1-(2-furanylcarbonyl)-1H-1,2,4-triazol-3-yl]amino]-benzenesulfonamide] | 0.0195 | 0.064 | – |
| Nc1nc(Nc2ccc(S(N)(=O)=O)cc2)nn1C(=O)c1cc2ccccc2s1 [Cpd 31, 4-[[5-amino-1-(benzo[b]thien-2-ylcarbonyl)-1H-1,2,4-triazol-3-yl]amino]-benzenesulfonamide] | 0.03 | 0.044 | – |
| Cc1nnsc1C(=O)n1nc(Nc2ccc(S(N)(=O)=O)cc2)nc1N [Cpd 36, 4-[[5-amino-1-[(4-methyl-1,2,3-thiadiazol-5-yl)carbonyl]-1H-1,2,4-triazol-3-yl]amino]-benzenesulfonamide] | 1.56 | 18.6 | – |
| Nc1nc(Nc2ccc(S(N)(=O)=O)cc2)nn1C(=O)/C=C/c1cccs1 [Cpd 42, 4-[[5-amino-1-[(2E)-1-oxo-3-(2-thienyl)-2-propenyl]-1H-1,2,4-triazol-3-yl]amino]-benzenesulfonamide] | 0.134 | 0.443 | – |
| Nc1nc(Nc2ccc(S(N)(=O)=O)cc2)nn1C(=O)/C=C/c1c(F)cccc1F [Cpd 44, 4-[[5-amino-1-[(2E)-3-(2,6-difluorophenyl)-1-oxo-2-propenyl]-1H-1,2,4-triazol-3-yl]amino]-benzenesulfonamide] | 0.522 | 2.68 | – |
| CC1CCCCC1C(=O)n1nc(Nc2ccc(S(N)(=O)=O)cc2)nc1N (stereo not shown) [Cpd 47, 4-[[5-amino-1-[(2-methylcyclohexyl)carbonyl]-1H-1,2,4-triazol-3-yl]amino]-benzenesulfonamide] | 0.0586 | 2.52 | – |
| Nc1nc(Nc2ccc(S(N)(=O)=O)cc2)nn1C(=O)c1ccc(-c2ccccn2)s1 [Cpd 49, 4-[[5-amino-1-[[5-(2-pyridinyl)-2-thienyl]carbonyl]-1H-1,2,4-triazol-3-yl]amino]-benzenesulfonamide] | > 1 | > 1 | > 1 |
| Nc1nc(Nc2ccc(S(N)(=O)=O)cc2)nn1S(=O)(=O)c1c(F)cccc1F [Cpd 68, 4-[[5-amino-1-[(2,6-difluorophenyl)sulfonyl]-1H-1,2,4-triazol-3-yl]amino]-benzenesulfonamide] | 0.66 | 5.14 | – |
| Nc1nc(Nc2ccc(S(N)(=O)=O)cc2)n(C(=O)c2c(F)cccc2F)n1 [Cpd 122, 4-[[3-amino-1-(2,6-difluorobenzoyl)-1H-1,2,4-triazol-5-yl]amino]-benzenesulfonamide] | 2.21 | > 10 | – |

Further compounds by falling IC50 [1], results first:

| IC50 [1] [µM] | IC50 [2] [µM] | IC50 [3] [µM] | Structure (SMILES) |
| --- | --- | --- | --- |
| ~100 | > 100 | – | Nc1nc(Nc2ccc(S(N)(=O)=O)cc2)nn1C(=O)c1ccccn1 [Cpd 27, 4-[[5-amino-1-(2-pyridinylcarbonyl)-1H-1,2,4-triazol-3-yl]amino]-benzenesulfonamide] |
| 70.4 | ~100 | – | Nc1nc(Nc2ccc(S(N)(=O)=O)cc2)nn1C(=O)c1ccncc1 [Cpd 29, 4-[[5-amino-1-(4-pyridinylcarbonyl)-1H-1,2,4-triazol-3-yl]amino]-benzenesulfonamide] |
| 18.4 | ~100 | – | Nc1nc(Nc2ccc(S(N)(=O)=O)cc2)nn1C(=O)c1ccno1 [Cpd 26, 4-[[5-amino-1-(5-isoxazolylcarbonyl)-1H-1,2,4-triazol-3-yl]amino]-benzenesulfonamide] |
| 10.5 | 55 | – | Nc1nc(Nc2ccc(S(N)(=O)=O)cc2)nn1C(=O)c1csnn1 [Cpd 37, 4-[[5-amino-1-(1,2,3-thiadiazol-4-ylcarbonyl)-1H-1,2,4-triazol-3-yl]amino]-benzenesulfonamide] |
| 2.6 | ~100 | – | CCCCC1CCC(C(=O)n2nc(Nc3ccc(S(N)(=O)=O)cc3)nc2N)CC1 (stereo not shown) [Cpd 48, 4-[[5-amino-1-[(4-butylcyclohexyl)carbonyl]-1H-1,2,4-triazol-3-yl]amino]-benzenesulfonamide] |
| 0.982 | 13.2 | – | Nc1nc(Nc2ccc(S(N)(=O)=O)cc2)nn1C(=O)c1cccnc1 [Cpd 28, 4-[[5-amino-1-(3-pyridinylcarbonyl)-1H-1,2,4-triazol-3-yl]amino]-benzenesulfonamide] |
| 0.282 | 0.0674 | – | Cc1ccsc1C(=O)n1nc(Nc2ccc(S(=O)(=O)N3CCCCC3)cc2)nc1N [Cpd 24, 1-[(3-methyl-2-thienyl)carbonyl]-N^3-[4-(1-piperidinylsulfonyl)phenyl]-1H-1,2,4-triazole-3,5-diamine] |
| 0.195 | 11.1 | – | Nc1nc(Nc2ccc(S(N)(=O)=O)cc2)nn1C(=O)Cc1cccs1 [Cpd 40, 4-[[5-amino-1-(2-thienylacetyl)-1H-1,2,4-triazol-3-yl]amino]-benzenesulfonamide] |
| 0.0873 | 0.628 | – | Nc1nc(Nc2ccc(S(N)(=O)=O)cc2)nn1C(=O)Cc1c(F)cccc1F [Cpd 43, 4-[[5-amino-1-[(2,6-difluorophenyl)acetyl]-1H-1,2,4-triazol-3-yl]amino]-benzenesulfonamide] |
| 0.0358 | 0.453 | – | CC1CCC(C(=O)n2nc(Nc3ccc(S(N)(=O)=O)cc3)nc2N)CC1 (stereo not shown) [Cpd 46, 4-[[5-amino-1-[(4-methylcyclohexyl)carbonyl]-1H-1,2,4-triazol-3-yl]amino]-benzenesulfonamide] |
| 0.0318 | 0.233 | – | CC(=O)c1ccc(C(=O)n2nc(Nc3ccc(S(N)(=O)=O)cc3)nc2N)s1 [Cpd 22, 4-[[1-[(5-acetyl-2-thienyl)carbonyl]-5-amino-1H-1,2,4-triazol-3-yl]amino]-benzenesulfonamide] |
| 0.0137 | 0.355 | – | Nc1nc(Nc2ccc(S(N)(=O)=O)cc2)nn1C(=O)C1CCCCCC1 [Cpd 45, 4-[[5-amino-1-(cycloheptylcarbonyl)-1H-1,2,4-triazol-3-yl]amino]-benzenesulfonamide] |
